According to patent US8546381B2, “Bridged heterocyclic compounds and methods of use” (Medivation Technologies, Inc., priority 2008, dated 2013):

Tests used:
[1] = molecular target: T1, human recombinant histamine H1 receptor (Homo sapiens, UniProt P35367); experiment: Histamine H1 radioligand binding ([3H]Pyrilamine); conditions: compound at 1 μM; inhibition of specific [3H]Pyrilamine binding; read-out: Histamine Binding (1 μM) H1, Percentage Inhibition
T1 construct: expressed in transfected cells; host or cells: CHO cells
How it was run: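 Membranes from CHO cells expressing human H1 receptor were incubated with 1.2 nM [3H]pyrilamine for 180 min at 25° C in Tris-HCl buffer pH 7.4. Non-specific binding defined with 1 μM pyrilamine; compounds tested at 1 μM or lower in 1% DMSO. Results are given as % inhibition of specific binding.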

[2] = molecular target: T2, human recombinant serotonin (5-Hydroxytryptamine) 5-HT2A receptor (Homo sapiens, UniProt P28223); experiment: Serotonin 5-HT2A radioligand binding ([3H]Ketanserin); conditions: read-out: Serotonin 5-HT2A, inhibition of ligand binding (1 μM)
T2 construct: expressed in transfected cells; host or cells: CHO-K1 cells
How it was run: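 CHO-K1 membranes with human 5-HT2A in 50 mM Tris-HCl pH 7.4, incubated with 0.5 nM [3H]Ketanserin for 60 min at 25 °C; non-specific binding defined with 1 μM mianserin. Bound ligand measured by filtration and counting.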

[3] = molecular target: T3, human recombinant serotonin (5-Hydroxytryptamine) 5-HT2C receptor (Homo sapiens, UniProt P28335); experiment: Serotonin 5-HT2C radioligand binding ([3H]Mesulergine); conditions: read-out: Serotonin 5-HT2C, inhibition of ligand binding (1 μM)
T3 construct: expressed in transfected cells; host or cells: CHO-K1 cells
T3 sequence (P28335 33-458): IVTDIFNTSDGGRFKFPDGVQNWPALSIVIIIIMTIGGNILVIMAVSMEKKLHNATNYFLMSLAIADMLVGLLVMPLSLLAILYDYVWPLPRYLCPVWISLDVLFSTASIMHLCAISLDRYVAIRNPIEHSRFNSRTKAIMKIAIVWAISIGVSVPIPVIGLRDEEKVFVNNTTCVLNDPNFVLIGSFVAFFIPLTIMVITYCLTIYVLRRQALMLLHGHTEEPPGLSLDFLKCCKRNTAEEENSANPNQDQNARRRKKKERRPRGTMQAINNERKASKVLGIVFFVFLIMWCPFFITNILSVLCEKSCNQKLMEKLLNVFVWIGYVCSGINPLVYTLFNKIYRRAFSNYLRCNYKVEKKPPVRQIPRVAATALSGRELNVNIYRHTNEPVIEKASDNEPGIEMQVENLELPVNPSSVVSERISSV
How it was run: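 Membranes from CHO-K1 cells expressing the human receptor were incubated 60 min at 25 °C with 1 nM [3H]mesulergine in 50 mM Tris-HCl pH 7.4 with ascorbic acid and 10 μM pargyline. Compounds were tested at 1 μM or lower in 1% DMSO, with 1 μM mianserin defining non-specific binding. After filtration, values are % inhibition of specific binding.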

[4] = molecular target: T4, human recombinant serotonin (5-Hydroxytryptamine) 5-HT6 receptor (Homo sapiens, UniProt P50406); experiment: Serotonin 5-HT6 radioligand binding ([3H]LSD); conditions: read-out: Serotonin 5-HT6, inhibition of ligand binding (1 μM)
T4 construct: expressed in transfected cells; host or cells: human HeLa cells
How it was run: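 Membranes of HeLa cells expressing human 5-HT6 were incubated with 1.5 nM [3H]LSD in Tris-HCl buffer pH 7.4 for 120 min at 37° C, with non-specific binding defined by 5 μM 5-HT.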

T2 sequence (P28223 whole entry): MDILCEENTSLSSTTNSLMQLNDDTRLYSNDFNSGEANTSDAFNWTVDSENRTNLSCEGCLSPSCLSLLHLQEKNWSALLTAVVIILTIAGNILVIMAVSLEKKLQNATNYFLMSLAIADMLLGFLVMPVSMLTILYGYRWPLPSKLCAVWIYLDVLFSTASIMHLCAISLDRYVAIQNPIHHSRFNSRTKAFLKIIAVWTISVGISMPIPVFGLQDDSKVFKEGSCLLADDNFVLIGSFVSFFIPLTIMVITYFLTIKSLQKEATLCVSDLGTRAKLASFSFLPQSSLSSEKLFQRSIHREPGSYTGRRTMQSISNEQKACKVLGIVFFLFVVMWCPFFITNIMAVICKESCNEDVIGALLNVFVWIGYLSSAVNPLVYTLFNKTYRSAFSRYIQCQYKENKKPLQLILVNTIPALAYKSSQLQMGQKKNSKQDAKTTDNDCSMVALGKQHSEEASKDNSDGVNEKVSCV
T1 sequence (P35367 whole entry): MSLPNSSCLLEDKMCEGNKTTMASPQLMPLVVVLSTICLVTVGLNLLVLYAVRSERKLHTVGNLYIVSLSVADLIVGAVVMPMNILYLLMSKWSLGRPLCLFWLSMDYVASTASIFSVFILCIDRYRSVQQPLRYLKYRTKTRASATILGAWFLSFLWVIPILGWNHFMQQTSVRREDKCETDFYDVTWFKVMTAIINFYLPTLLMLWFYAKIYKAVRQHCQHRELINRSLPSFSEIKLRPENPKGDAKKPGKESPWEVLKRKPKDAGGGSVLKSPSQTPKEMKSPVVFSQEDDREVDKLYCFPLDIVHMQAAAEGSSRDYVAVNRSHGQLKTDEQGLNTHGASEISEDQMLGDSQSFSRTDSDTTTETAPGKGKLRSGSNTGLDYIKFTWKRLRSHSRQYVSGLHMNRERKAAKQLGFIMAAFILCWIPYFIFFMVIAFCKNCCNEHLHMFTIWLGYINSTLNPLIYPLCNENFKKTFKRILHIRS
T4 sequence (P50406 whole entry): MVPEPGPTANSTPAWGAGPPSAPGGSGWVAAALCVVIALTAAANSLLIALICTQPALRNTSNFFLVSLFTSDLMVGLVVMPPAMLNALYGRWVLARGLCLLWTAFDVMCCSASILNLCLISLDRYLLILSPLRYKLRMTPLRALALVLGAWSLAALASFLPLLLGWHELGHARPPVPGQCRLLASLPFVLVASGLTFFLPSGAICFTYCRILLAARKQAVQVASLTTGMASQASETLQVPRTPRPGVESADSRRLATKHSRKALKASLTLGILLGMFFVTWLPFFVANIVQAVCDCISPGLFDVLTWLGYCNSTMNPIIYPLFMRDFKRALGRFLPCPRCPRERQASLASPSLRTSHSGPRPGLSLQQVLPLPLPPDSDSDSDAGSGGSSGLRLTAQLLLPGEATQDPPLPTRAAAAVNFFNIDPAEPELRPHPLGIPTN

| Compound | inhibition at 1 µM [1] [%] | inhibition at 1 µM [2] [%] | inhibition at 1 µM [3] [%] | inhibition at 1 µM [4] [%] |
| --- | --- | --- | --- | --- |
| C/C(=C/n1c2c(c3ccccc31)[C@@H]1CC[C@H](C2)N1C)c1ccc(F)cc1 [Compound 121] | 17 | 98 | 88 | 65 |
| C/C(=C\n1c2c(c3cc(Cl)ccc31)C1CCC(C2)N1C)c1ccc(F)cc1 (stereo not shown) [Compound 123] | 62 | 97 | 95 | 98 |
| C/C(=C\n1c2c(c3cc(C)ccc31)C1CCC(C2)N1C)c1ccc(F)cc1 (stereo not shown) [Compound 124] | 31 | 97 | 86 | 85 |
| C/C(=C\n1c2c(c3cc(Cl)ccc31)C1CCC(C2)N1C)c1ccc(Cl)cc1 (stereo not shown) [Compound 125] | 82 | 101 | 99 | 33 |
| COc1ccc(/C(C)=C/n2c3c(c4cc(Cl)ccc42)C2CCC(C3)N2C)cc1F (stereo not shown) [Compound 136] | 69 | 99 | 100 | 31 |
| CN1C2CCC1c1c(n(C#Cc3ccc(F)cc3)c3ccc(Cl)cc13)C2 (stereo not shown) [Compound 138] | 57 | 98 | 97 | 45 |
| Cc1ccc(C#Cn2c3c(c4cc(Cl)ccc42)C2CCC(C3)N2C)cn1 (stereo not shown) [Compound 139] | 57 | 88 | 93 | 26 |
| Cc1ccc2c(c1)c1c(n2C#Cc2ccc(F)cc2)CC2CCC1N2C (stereo not shown) [Compound 141] | 2 | 93 | 89 | 21 |
| CN1C2CCC1c1c(n(C#Cc3ccc(Cl)cc3)c3ccc(Cl)cc13)C2 (stereo not shown) [Compound 142] | 34 | 98 | 100 | 36 |
| COc1ccc(C(C)(O)Cn2c3c(c4cc(Cl)ccc42)C2CCC(C3)N2C)cc1F (stereo not shown) [Compound 160] | 86 | 95 | 93 | 29 |
| COc1ccc(C(C)(O)Cn2c3c(c4cc(C)ccc42)C2CCC(C3)N2C)cc1F (stereo not shown) [Compound 161] | 84 | 96 | 92 | 25 |
| Cc1ccc2c(c1)c1c(n2C(=O)Cc2ccc(Cl)cc2)CC2CCC1N2C (stereo not shown) [Compound 162] | 0 | 92 | 93 | 23 |
| C/C(=C\n1c2c(c3cc(C)ccc31)C1CCC(C2)N1C)c1ccc(Cl)cc1Cl (stereo not shown) [Compound 163] | 72 | 94 | 94 | 36 |
